The record followed here is ChEMBL document CHEMBL1129259 (J Med Chem, 1996).

The target in the experiment is Melatonin receptor (Gallus gallus, UniProt P49288+P51050+P49285). Briefly: In vitro binding affinity against melatonin receptor using 2-[125I]iodomelatonin (0.05 nM) and chicken brain membranes. Set-up: species or system Membrane.

For orientation: Ki means a measure of affinity in units of concentration, obtained from inhibition or displacement.

`CC(=O)NC1Cc2cccc3cccc(c23)C1`: the inhibition constant (Ki) was found to be 195 nM.
Consider `COc1c2c(cc3ccccc13)CCC(NC(C)=O)C2` (stereo not drawn), for which the inhibitory constant (Ki) was 273 nM.
Turning to `COc1ccc2ccc(OC)c3c2c1CC(NC(C)=O)C3`, the inhibitory constant (Ki) is 0.7 nM.
In turn, `COc1cc2ccccc2c2c1CC(NC(C)=O)CC2` (stereo not drawn) yielded an inhibition constant (Ki) of 168 nM.
Then `COc1ccc2ccc(O)c3c2c1CC(NC(C)=O)C3` (stereo not drawn), with 22.8 nM; and `CC(=O)NCCc1c[nH]c2ccc(O)cc12` [ACETYLSEROTONIN], with 1640 nM; and `COc1ccc2cccc3c2c1CC(NC(C)=O)C3` (stereo not drawn), with 28.7 nM.
As for `CCC(=O)NC1Cc2cccc3ccc(OC)c(c23)C1` (stereo not drawn), the Ki was 6 nM.
